Source: article PMC7904806, “A phase I dose-finding, pharmacokinetics and genotyping study of olaparib and lurbinectedin in patients with advanced solid tumors” (Scientific Reports, 2021)
Where “and” joins values, the source holds several entries; their conditions need not be identical. Identical values can stand only once. Entries after “also recorded” stand apart in the source; their conditions may differ. Like-named read-outs stand apart in the source and are kept apart here. Each block holds one molecule with its values, some of them ahead of it.

Assays:
[1] = single-agent, cited from earlier work
[2] = Pharmacokinetics in patients, cycle 1 (noncompartmental analysis); format: in vivo, human; conditions: for Drug–drug interactions (DDI): combination of lurbinectedin and olaparib
Description: Blood samples for pharmacokinetic (PK) analyses were collected during cycle 1, with a schedule of ten samples (Supplementary Table 5).
Safety and efficacy population comprised all patients who received at least one dose of the study treatment. Continuous variables were presented with summary statistics and qualitative variables with the absolute and relative frequencies. In those cases where it was necessary to ensure the normality of the continuous parameters, log transformation (or other suitable transformation) was performed. Analysis of Variance (ANOVA) was used for exploratory group comparisons. If Gaussian distribution assumptions (Shapiro–Wilks test) were not met, equivalent nonparametric methods as the Kruskal–Wallis, were performed. Chi-squared or Fisher exact test were used for qualitative parameters. To explore the change in value of a variable, between baseline and week 12 or any other time point, a t-test for paired data or the Wilcoxon signed-rank test was performed, based on the distribution followed by the corresponding variable. All statistical analyses were performed using IBM SPSS Statistics 22 and R v.3.4.3. PK analysis was performed according to the NCA. […] The dose-exposure relationships for Cmax and AUC for lurbinectedin and AUC 0–6 for olaparib will be evaluated and any potential PK interaction between olaparib and lurbinectedin were also explored. The population pharmacokinetics (PopPK) models for each drug was used to detect potential drug–drug interactions based on single agent PopPK models. The potential influence on selected PK parameters of selected demographic and clinical dichotomous variables (gender, laboratory test results above/below selected cutoff values, etc.) was evaluated by Student’s test Mann–Whitney’s U test as appropriate. For multinomial variables, analysis of variance was used. For selected continuous demographic and clinical variables, relationships with selected PK parameters were graphically explored and assessed using correlation and regression methods.
Supplementary Table 5. Sampling schedule for the determination of lurbinectedin and
Sample Time relative to the Sampling times Sampling times PK
number lurbinectedin for lurbinectedin for olaparib window
#1 1 0 min Pre-infusion Pre-dose -10 min to SOI
#2 1 0.5 h 30 min before EOI 30 min after 1st administration ±2 min
#3 1 0.92 h 5 min before EOI 55 min after 1st administration ±2 min
#4 1 1.5 h 30 min after EOI 1.5 h after 1st administration ±5 min
#5 1 3 h 2 h after EOI 3 h after 1st administration ±10 min
#6 1 4.5 h 3.5 h after EOI 4.5 h after 1st administration ±10 min
#7 1 6 h 5 h after EOI 6 h after 1st administration ±10 min
2 24 h after 1st administration
#8 24 h 23 h after EOI (immediately before 3rd olaparib administration) ±2 h
4 72 h after 1st administration
#9 † 72 h 71 h after EOI (immediately before 7th olaparib administration) +24 / -2 h […]

[3] = system: A2780; assay: MTT cytotoxicity assay, A2780; format: cell-based; conditions: A2780, lowest IC50 of the panel
Protocol: (§1) The following Ovarian Cancer Cell lines were analyzed: TOV112, SKOV-3, OVCAR-3, PEO1, PEO6, PEO4, A2780 and A2780-Cis (an A2780 variant made resistant to platinum), representing the main different molecular subtypes of ovarian cancer (Supplementary Table 6). These cell lines were maintained at 37 °C in 5% CO2 in RPMI‐1640 medium (Sigma‐Aldrich Co.) and DMEM medium (Sigma‐Aldrich Co.), all supplemented with 10% heat‐inactivated FBS (Sigma‐Aldrich Co.). To verify the genetic profile of the cell lines, a characterization of microsatellite markers was carried out (AmpFlSTR Identifiler PCR Amplification Kit, AppliedBiosystem).
(§2) For the pharmacological characterization of the different cell lines, dose–response curves were obtained for lurbinectedin (range between 25 and 0.0343 μM and 100–1.5625 μM dilution factor 3 and 2, respectively) and olaparib (range between […]). […] Cytotoxicity assay was assessed performing six technical replicates and three biological replicates per each curve point.
(§3) For MTT assay, cells were plated and after 24 h of incubation, treated with the drug (lurbinectedin/olaparib) either as a single agent or with both agents simultaneously. […] Finally, the absorbance was measured at 570 nm.

[4] = system: ovarian cancer cell lines; assay: MTT cytotoxicity assay, panel of ovarian cancer cell lines; format: cell-based
Protocol: as §1, §2
Before starting cytotoxicity assays to characterize the chemosensitivity of cell lines to study drugs, different time of exposures and doses were tested in order to establish the most suitable working conditions. […] Regarding olaparib, exposure times were established at 72, 96 and 120 h, measuring absorbance directly after treatment exposure (Supplementary Fig. 10). […]

[5] = cited from earlier work
[6] = system: A2780 CIS; assay: MTT cytotoxicity assay, A2780 CIS; format: cell-based; conditions: A2780cis, lowest IC50 of the panel
Protocol: as §1, §2, §3

SMILES: COc1ccc2[nH]c3c(c2c1)CCN[C@]31CS[C@@H]2c3c(OC(C)=O)c(C)c4c(c3[C@H](COC1=O)N1[C@@H]2[C@H]2c3c(cc(C)c(OC)c3O)C[C@@H]([C@@H]1O)N2C)OCO4 [lurbinectedin]
Grade 3–4 neutropenia ([1]; dose adjusted to body surface area ref 23): 57%
Grade 3–4 neutropenia ([1]; flat dose ref 21): up to 85%
Drug–drug interactions (DDI) [2]: did not observe any potential drug–drug interactions; also recorded: no drug interactions
Mean lurbinectedin CL ([2]; highest olaparib DL (250 mg BID)): 12 L/h
Lurbinectedin CL variability ([2]; lurbinectedin 1 mg/m^2): 92%
Lurbinectedin CL, one patient with high CL ([2]; lurbinectedin 1 mg/m^2): 37 L/h
Lurbinectedin CL variability ([2]; lurbinectedin 1.5 mg/m^2): 36%
Lurbinectedin CL variability ([2]; lurbinectedin 2 mg/m^2): 52%
Lurbinectedin CL variabilities ([2]; olaparib 200 and 250 mg BID, lurbinectedin 1.5 and 2 mg/m^2): ~36%
Mean lurbinectedin clearance (CL) ([2]; three lurbinectedin DLs, with olaparib): ~12 L/h
IC50 [3]: 0.46 nM
IC50 reached after 1 h exposure ([4]; 1 h exposure, viability at 72 h): not enough to reach the IC50 value
IC50 ([4]; all cell lines except OVCAR3, 72 h exposure): < 1 nM
Mean lurbinectedin CL as single-agent ([5]; single-agent ref 25): 12 L/h

Olaparib PK parameters by lurbinectedin DL ([2]; NCA): did not show differences
Drug–drug interactions (DDI) [2]: no drug interactions
clearance ([2]; human, blood, oral, olaparib 100 mg, read-out: Olaparib CL (converted)): 50 mL/min
clearance ([2]; human, blood, oral, olaparib DLs above 100 mg, read-out: Olaparib CL (converted)): 100 to 167 mL/min
half-life ([2]; human, in vivo, oral, this trial, NCA samples until 6 h, read-out: Olaparib terminal half-life (converted)): 3 h
clearance ([2]; human, in vivo, oral, this trial, read-out: Mean olaparib total body clearance (converted)): 117 mL/min
SMILES: O=C(c1cc(Cc2n[nH]c(=O)c3ccccc23)ccc1F)N1CCN(C(=O)C2CC2)CC1 [olaparib]
IC50 [6]: 2900 nM
Olaparib total body clearance ([5]; literature ref 31): 5.1 L/h and 8.6 L/h
